EC50 data for 17 molecules are collected here from patent US20220056019A1, “FARNESOID X RECEPTOR AGONISTS AND USES THEREOF” (Metacrine, Inc., priority 2018, published 2022).

Usually EC50 stands for the midpoint of the concentration-response curve. Lower therefore signals a more potent agent.

This test deals with T1, hFXR (Homo sapiens, UniProt Q96RI1).
T1 construct: expressed in transfected cells; host or cells: CV-1 cells
T1 sequence (Q96RI1 1-486): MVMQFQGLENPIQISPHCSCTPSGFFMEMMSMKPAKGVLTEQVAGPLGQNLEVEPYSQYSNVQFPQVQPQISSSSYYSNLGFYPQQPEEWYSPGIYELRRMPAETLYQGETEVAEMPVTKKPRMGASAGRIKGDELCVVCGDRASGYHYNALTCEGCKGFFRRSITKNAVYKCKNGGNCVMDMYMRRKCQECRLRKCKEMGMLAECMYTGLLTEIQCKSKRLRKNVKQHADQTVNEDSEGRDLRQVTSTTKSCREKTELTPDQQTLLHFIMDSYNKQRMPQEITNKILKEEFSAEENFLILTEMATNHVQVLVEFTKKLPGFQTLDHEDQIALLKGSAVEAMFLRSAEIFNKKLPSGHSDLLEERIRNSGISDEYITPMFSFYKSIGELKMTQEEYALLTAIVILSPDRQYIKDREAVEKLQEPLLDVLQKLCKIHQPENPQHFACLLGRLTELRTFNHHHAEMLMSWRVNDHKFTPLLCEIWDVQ
T1 sequence (P19793 1-462 partner): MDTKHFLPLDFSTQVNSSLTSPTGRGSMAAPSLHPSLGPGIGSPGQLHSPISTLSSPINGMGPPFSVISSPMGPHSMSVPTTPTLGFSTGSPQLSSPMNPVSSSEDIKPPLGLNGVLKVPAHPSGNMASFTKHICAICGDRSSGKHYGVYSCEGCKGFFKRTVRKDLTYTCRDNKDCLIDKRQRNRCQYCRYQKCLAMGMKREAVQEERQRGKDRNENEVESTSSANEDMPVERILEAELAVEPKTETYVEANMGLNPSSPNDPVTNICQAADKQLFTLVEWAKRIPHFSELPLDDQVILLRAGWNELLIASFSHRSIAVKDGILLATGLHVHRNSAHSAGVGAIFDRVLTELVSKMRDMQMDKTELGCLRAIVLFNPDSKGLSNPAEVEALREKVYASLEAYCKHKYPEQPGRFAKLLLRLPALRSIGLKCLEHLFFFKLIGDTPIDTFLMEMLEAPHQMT
Briefly: In Vitro FXR Assay (TK): TK-ECRE-luc reporter in transfected CV-1 cells. The following applies: 18 hrs incubation, luminescence. The format is cell-based. Here is the method:
Example B-1: In Vitro FXR Assay (TK)
CV-1 cells were seeded at a density of 2,000,000 cells in a T175 flask with DMEM+10% charcoal double-stripped FBS and incubated at 37° C. in 5% CO2 for 18 h (O/N).
After 18 h of incubation, the medium in the T175 flask was changed with fresh DMEM+10% charcoal super-stripped serum. In a polypropylene tube, 2500 μL OptiMEM (Life Technologies, Cat #31985-062) was combined with expression plasmids for hFXR, hRXR, TK-ECRE-luc and pCMX-YFP. The tube was then briefly vortexed and incubated at room temperature for 5 minutes. Transfection reagent (X-tremeGENE HP from Roche, Cat #06 366 236 001) was added to the OptiMEM/plasmid mixture vortexed and incubated at room temperature for 20 minutes. Following incubation, the transfection reagent/DNA mixture complex was added to cells in the T175 flask and the cells were incubated at 37° C. in 5% CO2 for 18 h (O/N).
Compounds were serially diluted in DMSO and added to transfected CV-1 cells. The cells were then incubated for 18 hrs. The next day cells were lysed and examined for luminescence.
Consider `COc1ccc([C@H]2CC[C@H](CN(c3cc(-c4coc(C5CC5)n4)ccn3)C(=O)[C@H]3CC[C@H](OC(=O)N4CCN(C)CC4)CC3)CC2)cc1Cl` [Compound 2.07, trans-4-(((trans-4-(3-Chloro-4-methoxyphenyl)cyclohexyl)methyl)(4-(2-cyclopropyloxazol-4-yl)pyridin-2-yl)carbamoyl)cyclohexyl 4-methylpiperazine-1-carboxylate], for which the half-maximal effective concentration (EC50) is at most 50 nM. `COc1ccc([C@H]2CC[C@H](CN(c3cc(-c4cnc(C5CC5)s4)ccn3)C(=O)[C@H]3CC[C@H](OC(=O)N4CCN(C)CC4)CC3)CC2)cc1Cl` [Compound 2.08, trans-4-(((trans-4-(3-Chloro-4-methoxyphenyl)cyclohexyl)methyl)(4-(2-cyclopropylthiazol-5-yl)pyridin-2-yl)carbamoyl)cyclohexyl 4-methylpiperazine-1-carboxylate] returned a concentration giving a half-maximal response (EC50) of at most 50 nM. For `COc1ccc([C@H]2CC[C@H](CN(c3cc(-c4cc(C5CC5)on4)ccn3)C(=O)[C@H]3CC[C@H](OC(=O)N4CC(O)C4)CC3)CC2)cc1C` [Compound 2.09, trans-4-((4-(5-Cyclopropylisoxazol-3-yl)pyridin-2-yl)((trans-4-(4-methoxy-3-methylphenyl)cyclohexyl)methyl)carbamoyl)cyclohexyl 3-hydroxyazetidine-1-carboxylate], the 50% effective concentration (EC50) was at most 50 nM.

`COc1ccc([C@H]2CC[C@H](CN(c3cc(-c4cnc(C(C)C)s4)ccn3)C(=O)[C@H]3CC[C@H](OC(=O)NCC(C)(C)O)CC3)CC2)cc1C` [Compound 2.10, trans-4-((4-(2-Isopropylthiazol-5-yl)pyridin-2-yl)((trans-4-(4-methoxy-3-methylphenyl)cyclohexyl)methyl)carbamoyl) cyclohexyl(2-hydroxy-2-methylpropyl)carbamate] came in with an EC50 of at most 50 nM. As to `COc1ccc([C@H]2CC[C@H](CN(c3cc(-c4cnn(C(C)C)c4)ccn3)C(=O)[C@H]3CC[C@H](OC(=O)N4CC(OCCO)C4)CC3)CC2)cc1C` [Compound 2.11, trans-4-((4-(1-Isopropyl-1H-pyrazol-4-yl)pyridin-2-yl)(((trans)-4-(4-methoxy-3-methylphenyl)cyclohexyl)methyl)carbamoyl) cyclohexyl3-(2-hydroxyethoxy)azetidine-1-carboxylate], the EC50 was at most 50 nM. The result for `COc1ccc([C@H]2CC[C@H](CN(c3cc(-c4cnn(C(C)C)c4)ccn3)C(=O)[C@H]3CC[C@H](OC(=O)N4CC(S(C)(=O)=O)C4)CC3)CC2)cc1C` [Compound 2.12, trans-4-((4-(1-Isopropyl-1H-pyrazol-4-yl)pyridin-2-yl)(((trans)-4-(4-methoxy-3-methylphenyl)cyclohexyl)methyl)carbamoyl) cyclohexyl 3-(methylsulfonyl)azetidine-1-carboxylate] reads at most 50 nM; that for `COc1ccc([C@H]2CC[C@H](CN(c3cc(-c4cnn(C(C)C)c4)ccn3)C(=O)[C@H]3CC[C@H](OC(=O)N4CC(N(C)C)C4)CC3)CC2)cc1C` [Compound 2.13, trans-4-((4-(1-Isopropyl-1H-pyrazol-4-yl)pyridin-2-yl)(((trans)-4-(4-methoxy-3-methylphenyl)cyclohexyl)methyl)carbamoyl) cyclohexyl 3-(dimethylamino)azetidine-1-carboxylate], at most 50 nM; that for `COc1ccc([C@H]2CC[C@H](CN(c3cc(-c4cnn(C(C)C)c4)ccn3)C(=O)[C@H]3CC[C@H](OC(=O)N4CCN(C)CC4)CC3)CC2)cc1C` [Compound 2.14, trans-4-((4-(1-Isopropyl-1H-pyrazol-4-yl)pyridin-2-yl)(((trans)-4-(4-methoxy-3-methylphenyl)cyclohexyl)methyl)carbamoyl) cyclohexyl4-methylpiperazine-1-carboxylate], at most 50 nM.

`COc1ccc([C@H]2CC[C@H](CN(c3cc(-c4cnn(C(C)C)c4)ccn3)C(=O)[C@H]3CC[C@H](OC(=O)N4CCNCC4)CC3)CC2)cc1C` [Compound 2.15, trans-4-((4-(1-Isopropyl-1H-pyrazol-4-yl)pyridin-2-yl) ((trans-4-(4-methoxy-3-methylphenyl)cyclohexyl)methyl)carbamoyl) cyclohexyl piperazine-1-carboxylate] showed an EC50 of 50 to 1000 nM.

Molecule `COc1ccc([C@H]2CC[C@H](CN(c3cc(-c4cnn(C(C)C)c4)ccn3)C(=O)[C@H]3CC[C@H](OC(=O)N4CCOCC4)CC3)CC2)cc1C` [Compound 2.16, trans-4-((4-(1-Isopropyl-1H-pyrazol-4-yl)pyridin-2-yl)(((trans)-4-(4-methoxy-3-methylphenyl)cyclohexyl)methyl)carbamoyl)cyclohexyl morpholine-4-carboxylate] came in with an EC50 of at most 50 nM. In turn, `COc1ccc([C@H]2CC[C@H](CN(c3cc(-c4cnn(C(C)C)c4)ccn3)C(=O)[C@H]3CC[C@H](OC(=O)NC(C)C)CC3)CC2)cc1C` [Compound 2.17, trans-4-((4-(1-Isopropyl-1H-pyrazol-4-yl)pyridin-2-yl)(((trans)-4-(4-methoxy-3-methylphenyl)cyclohexyl)methyl)carbamoyl) cyclohexyl isopropylcarbamate] had an EC50 of at most 50 nM. For `COc1ccc([C@H]2CC[C@H](CN(c3cc(-c4cnn(C(C)C)c4)ccn3)C(=O)[C@H]3CC[C@H](OC(=O)N4CC(OC)C4)CC3)CC2)cc1C` [Compound 2.18, trans-4-((4-(1-Isopropyl-1H-pyrazol-4-yl)pyridin-2-yl) ((trans-4-(4-methoxy-3-methylphenyl)cyclohexyl)methyl)carbamoyl) cyclohexyl 3-methoxyazetidine-1-carboxylate] the value was at most 50 nM; for `COc1ccc([C@H]2CC[C@H](CN(c3cc(-c4cnn(C(C)C)c4)ccn3)C(=O)[C@H]3CC[C@H](OC(=O)NCCCO)CC3)CC2)cc1C` [Compound 2.19, trans-4-((4-(1-Isopropyl-1H-pyrazol-4-yl)pyridin-2-yl) ((trans-4-(4-methoxy-3-methylphenyl)cyclohexyl)methyl)carbamoyl) cyclohexyl(3-hydroxypropyl)carbamate], at most 50 nM. The result for `COc1ccc([C@H]2CC[C@H](CN(c3cc(-c4cnn(C(C)C)c4)ccn3)C(=O)[C@H]3CC[C@H](OC(=O)NCC(C)(C)CO)CC3)CC2)cc1C` [Compound 2.20, trans-4-((4-(1-Isopropyl-1H-pyrazol-4-yl)pyridin-2-yl) ((trans-4-(4-methoxy-3-methylphenyl)cyclohexyl)methyl)carbamoyl) cyclohexyl(3-hydroxy-2,2-dimethylpropyl)carbamate] reads at most 50 nM. The result for `COc1ccc([C@H]2CC[C@H](CN(c3cc(-c4cnn(C(C)C)c4)ccn3)C(=O)[C@H]3CC[C@H](OC(=O)NCCC(C)(C)O)CC3)CC2)cc1C` [Compound 2.21, trans-4-((4-(1-Isopropyl-1H-pyrazol-4-yl)pyridin-2-yl) ((trans-4-(4-methoxy-3-methylphenyl)cyclohexyl)methyl)carbamoyl) cyclohexyl(3-hydroxy-3-methylbutyl)carbamate] reads at most 50 nM; that for `CCn1cc(-c2ccnc(N(C[C@H]3CC[C@H](c4ccc(OC)c(C)c4)CC3)C(=O)[C@H]3CC[C@H](OC(=O)N4CC(O)C4)CC3)c2)cn1` [Compound 2.22, trans-4-((4-(1-Ethyl-1H-pyrazol-4-yl)pyridin-2-yl) ((trans-4-(4-methoxy-3-methylphenyl)cyclohexyl)methyl)carbamoyl) cyclohexyl3-hydroxyazetidine-1-carboxylate], at most 50 nM; that for `COc1ccc([C@H]2CC[C@H](CN(c3cc(-c4cnn(CCF)c4)ccn3)C(=O)[C@H]3CC[C@H](OC(=O)N4CC(O)C4)CC3)CC2)cc1C` [Compound 2.23, trans-4-((4-(1-(2-Fluoroethyl)-1H-pyrazol-4-yl)pyridin-2-yl) ((trans-4-(4-methoxy-3-methylphenyl)cyclohexyl)methyl)carbamoyl) cyclohexyl 3-hydroxyazetidine-1-carboxylate], at most 50 nM.
